The test system of series [1] is scopolamine-treated NMRI mice. As to the kind of experiment: Morris water maze spatial reference memory task, reversal of scopolamine-induced cognitive deficits. The series is classed as in vivo. The following applies: for Learning / Thigmotaxis / S-T memory: mg/kg i.p.; for S-T memory: probe 1.5 h. The procedure: (§1) Female, NMRI mice aged 3-4 months were from Harlan, UK.
Mice were group housed (7-9 per cage) and maintained with light from 7 am-7 pm and experiments carried out in the light phase. […] They were separated into 6 groups to receive drug administrations as follows:
(§2) The injection volume for drugs was 0.2 ml per 30 g animal weight and they were injected intraperitoneally. The doses were as indicated above.
The water maze consisted of a water-filled pool (1.5 m diameter; 20±2° C.) in which a platform submerged 1 cm below water surface was the only means of escape. Mice were released from 4 cardinal sites (South, West, North and East) facing the wall of the pool in random fashion and thus had to acquire spatial knowledge of the exact platform location by spatial mapping procedures using distal cues.
Each animal was given 6 trials/day and was allowed to swim for a maximum time of 60 seconds and stay 30 seconds on the platform. […] An inter-trial interval of 10-20 minutes was given. The animals were trained for 4 consecutive days and received probe trials (free swim for 60 seconds without platform in the pool) approximately 1.5 and 24 hours post-training to test short and long-term memory, respectively. The behaviour of animals was recorded via an overhead camera and data transmitted to the PC for online storage and analysis (EthoVision basic version 3.0.8. Noldus Information Technology, Netherlands).
Probe trial data were analysed by one-way ANOVA and the appropriate post-hoc tests (Bonferroni's multiple comparison test or Newman Keuls) were carried out to determine the source of a significant main effect or interaction. Analyses were performed two-tailed and the null hypothesis was […] at probability levels of 5% (p<0.05). Only terms for reliable differences are mentioned in the text for simplicity.

The subject of series [2] is mice. Format: in vivo. The conditions noted are these: for highest effective and safe dose: i.p., mice.
For series [3] the following is noted: in vivo, ip.
Series [4] has as its system NMRI mice aged 2-3, 6 and 13 months. Description: Water maze learning and memory in young and aged NMRI mice. The conditions noted are these: 2-3 month mice; 1.5 hours; MTC 1 mg/kg i.p.
Series [5] concerns saline treated NMRI mice. Description: Morris water maze spatial reference memory task, drug given after saline (otherwise unimpaired animals, side-effect profiling). The conditions noted are these: saline then Rivast (0.125), mg/kg i.p. The series is classed as in vivo. The procedure:
as §1
Mice were group housed (7-9 per cage) and maintained with light from 7 am-7 pm and experiments carried out in the light phase. There were 82 mice in total, of which 12 were excluded from the study for circling behaviour during the water maze test. They were separated into 6 groups to receive drug administrations as follows:
as §2
Behavioural testing was undertaken using the Morris water maze spatial navigational task (Morris, 1984). […]
Each animal was given 6 trials/day and was allowed to swim for a maximum time of 60 seconds and stay 30 seconds on the platform. […] The behaviour of animals was recorded via an overhead camera and data transmitted to the PC for online storage and analysis (EthoVision basic version 3.0.8. Noldus Information Technology, Netherlands). […]
Behavioural data of acquisition learning were analysed by conventional statistics (Graph Pad Prism version 4.01) using factorial repeated measures analysis of variance (ANOVA) with treatment as between-subject and day/trial as within-subject factor followed by planned comparisons between selected groups. […]

A short description of series [6]: Brain levels of MTC after administration. The following applies: post administration.
Setting [7] is: scopolamine 0.5 mg/kg then rivastigmine 0.5 mg/kg, probe trials.
The mark [8] stands for this setting: scopolamine (0.5) then Rivast (0.1).
Where [9] appears, read: scopolamine (0.5) then Rivast (0.125).
The mark [10] stands for this setting: scopolamine (0.5) then Rivast (0.125), listed as Rivast.
[11] abbreviates: scopolamine (0.5) then Rivast (0.25).
Where [12] appears, read: scopolamine (0.5) then Rivast (0.25), listed as Rivast.
[13] abbreviates: scopolamine (0.5) then Rivast (0.5).
[14] abbreviates: scopolamine (0.5) then Rivast (0.5), listed as Rivast.

“Also recorded” adds a separate entry of the source. Where a name gives a salt, the structure may show the parent alone.

For `CN(C)c1ccc2nc3ccc(N(C)C)cc3[s+]c2c1` [MTC, methyl-thioninium chloride], in series [1] (linear dose-response), the “saturation of dose-response relationship for learning and memory formation” value is “about 4 mg/kg”. Further, the “highest effective and safe dose” value in series [2] is reported as 4 mg/kg. Moreover, the “time of peak brain levels” value in series [3] was 30 to 60 min. The “time spent in the target quadrant” value in series [4] is “no effect”.
Turning to `CCN(C)C(=O)Oc1cccc([C@H](C)N(C)C)c1` [rivastigmine, rivastigmine tartrate], the “dose required to fully restore spatial learning” value in series [1] (administered acutely, scopolamine-treated NMRI mice) is on record as over 0.125 mg/kg. Besides, the “overall learning between day 1 and 4 (overall reduction in path length)” value in series [1] (scopolamine 0.5 mg/kg then rivastigmine 0.1 mg/kg) is reported as “substantial overall improvement”. The “thigmotaxis during memory phase” value in series [1] (scopolamine 0.5 mg/kg then rivastigmine 0.5 mg/kg) is on record as “not significantly different from either scopolamine or saline”. For the same compound, the “logarithmic transform of pathlength (advanced analysis)” value in series [1] (scopolamine 0.5 mg/kg then rivastigmine 0.5 mg/kg i.p., by day 4) is listed as “reverse the deficit”. Moreover, the “proportion of time spent in target quadrant (probe trials)” value in series [1] (scopolamine 0.5 mg/kg then rivastigmine 0.5 mg/kg, pooled day 4 and day 5) is “did not reverse”. For the same compound, the “latency (composite parameter, temporal accuracy)” value in series [1] (setting [7]) is “no effect at all”. Moreover, the “localisation (composite parameter, spatial accuracy)” value in series [1] (setting [7]) was “not able to reverse the deficit”. In addition, the Learning result in series [1] (setting [8]) is on record as “ineffective”; in series [1] (scopolamine (0.5) then Rivast (0.1), listed as Rivast), “↓”; in series [1] (setting [10]), “↑”; in series [1] (scopolamine (0.5) then Rivast (0.125), listed as Rivastigmine), “fully reversed”; in series [1] (setting [11]) it was “only partial”; in series [1] (setting [12]) it was “↑↓”. The Learning entry in series [1] (setting [14]) is “↑”; in series [1] (scopolamine (0.5) then Rivast (0.5), listed as Rivastigmine) it was “completely reversed; also recorded: fully reversed”; in series [5], “did not alter spatial learning”. Moreover, the Thigmotaxis entry in series [1] (setting [8]) is listed as “↓”; in series [1] (setting [9]) it was “↑”; in series [1] (setting [11]), “↓”; in series [1] (setting [13]) it was “reversed”; in series [1] (setting [14]), “↑”. Also, the S-T memory entry in series [1] (setting [8]) is given as “↓”; in series [1] (setting [9]), “spatial bias was established”; in series [1] (setting [10]), “↑”; in series [1] (setting [11]), “memory deficit”; in series [1] (setting [12]) it was “↓”; in series [1] (setting [13]), “memory deficit”. Besides, the S-T memory entry in series [1] (setting [14]) is on record as “↓”; in series [5] (probe 1.5 h), “↑↓”. For the same compound, the “adverse effects (motor coordination problems, ataxia, brief episodes of convulsions)” value in series [2] (doses of 0.5 and 0.25 mg/kg, in the absence of scopolamine treatment) was “severe adverse effects”. Further, in series [2], the “highest effective and safe dose” value is 0.125 mg/kg.
For the compound methyl-thioninium chloride [MTC], the “time at which brain levels are maximal” value in series [6] lay within 1 to 4 h.

Source of the values: patent US9211294B2, “Phenothiazine compounds for treating mild cognitive impairment” (WisTa Laboratories Ltd., priority 2007, dated 2015).
